# In PubChem BioAssay AID1996:
# Settings: buffer; pH 7.4; 200.0 µM
row,Structure (SMILES),solubility kinetic
1,Cc1c[n+](CC(=O)c2ccccc2)cs1.[Br-],44.3 µg/mL
2,Cc1cccc(CCNCc2cc3cccc(C)c3[nH]c2=O)c1,45.9 µg/mL
3,N#Cc1ccccc1COC(=O)c1ccc2c(c1)OCCO2,10.9 µg/mL
4,COc1ccc(C)c2sc(=NC(=O)c3cccc(N4C(=O)CCC4=O)c3)n(C)c12,< 0.3 µg/mL
5,CSc1sccc1/C=N/O,18.2 µg/mL
6,Cc1ccc(N2CC(C(=O)NCc3ccco3)CC2=O)cc1Cl (stereo not given),30.8 µg/mL
7,Cc1cccc(OCC(=O)NCc2cc(C)nc3ccccc23)c1,5 µg/mL
8,COc1ccc(C(=O)O)cc1S(=O)(=O)NC(C)C,> 41 µg/mL
9,O=C(CSc1ccccc1)NCc1ccccc1,22.6 µg/mL
10,COC(=O)c1cccc(NC(=O)CSCc2ccccc2)c1,35.6 µg/mL
11,CN1CCN(c2ccncc2S(=O)(=O)N2CCCCC2)CC1,> 48.7 µg/mL
12,COc1ccc(CCC(=O)NCc2ccccc2Cl)cc1OC,> 50.1 µg/mL
13,O=C(CNC(=O)c1ccc2ccccc2c1)NCc1ccc(F)cc1,1.9 µg/mL
14,CCOC(=O)C1CCN(C(=O)COc2ccc(C(=O)c3ccccc3)cc2)CC1,36.6 µg/mL
15,CCC(C)NS(=O)(=O)c1cc2c3c(c1)CCC(=O)N3CCC2 (stereo not given),> 48.4 µg/mL
16,COc1ccccc1NC(=O)c1ccc(NC(=O)C2CC2C)cc1 (stereo not given),10.3 µg/mL
17,COc1ccc(C(=O)Cn2cnc3ccccc3c2=O)cc1OC,42.3 µg/mL
18,COc1ccc(CCNC(=O)NS(=O)(=O)c2ccc(C)cc2)cc1OC,> 56.8 µg/mL
19,O=C(Nc1cccc(-c2cnc3ccccc3n2)c1)c1ccncc1,0.6 µg/mL
20,O=C(COC(=O)CNC(=O)c1ccc(Cl)cc1Cl)NC1CC1,> 51.8 µg/mL

row,Structure (SMILES),solubility kinetic
1,O=C(O)CC(c1cccc(O)c1)N1Cc2ccccc2C1=O (stereo not given),> 44.6 µg/mL
2,O=[N+]([O-])c1cc([N+](=O)[O-])c2cc(-c3cccnc3)[nH]c2c1,< 0.2 µg/mL
3,CC1CC(C)CN(C(=O)c2cccc(S(=O)(=O)NCc3ccccc3)c2)C1 (stereo not given),> 58 µg/mL
4,O=C(NCCCn1ccnc1)c1cc(-c2cccc(O)c2)on1,39.6 µg/mL
5,CCCCN(CCCC)c1nc(-c2ccncc2)nc2ccccc12,< 0.2 µg/mL
6,CC(CCc1ccccc1)NC(=O)CC(C)c1ccccc1 (stereo not given),43.4 µg/mL
7,C=CCOC(=O)/C(=C/c1cccnc1)NC(=O)c1ccccc1,43.4 µg/mL
8,O=C(O)CCn1c(-c2ccccn2)nc2ccccc21,> 40.1 µg/mL
9,CCOC(=O)c1ccc(N2C(=O)Cc3ccccc3C2=O)cc1,> 46.4 µg/mL
10,Cl.O=C(NCC(c1ccc(F)cc1)N1CCOCC1)c1ccc([N+](=O)[O-])o1 (stereo not given),> 60 µg/mL
11,COc1ccc(NC(=S)N2CCC(c3ccc(C)cc3)C2)cc1 (stereo not given),0.6 µg/mL
12,Cc1ccsc1C(=O)NCCc1nnc2ccccn12,> 43 µg/mL
13,COc1ccc(CC(=O)NC2CCSc3ccccc32)cc1OC (stereo not given),0.7 µg/mL
14,CCOC(=O)Cc1nc2nc(C)cc(C)n2n1,> 35.1 µg/mL
15,CCOC(=O)/C(C#N)=C/C=C1/C=CC=CN1C,> 34.5 µg/mL
16,CN(C)CCn1cnc2ccccc21.Cl,> 39.3 µg/mL
17,Cc1ccc(S(=O)(=O)N2CCOCC2)cc1NC(=O)COC(=O)c1ccc(Cl)s1,3 µg/mL
18,O=C(/C=C/c1ccc([N+](=O)[O-])s1)N1CCCCC1,> 39.9 µg/mL
19,Cc1ccc(S(=O)(=O)N2CCC(C(=O)N3CCC3)CC2)cc1,47.4 µg/mL
20,CN(C)S(=O)(=O)c1ccc(NC(=O)CN2CCCCCC2)cc1,50.9 µg/mL

row,Structure (SMILES),solubility kinetic
1,N#Cc1ccccc1NC(=O)COC(=O)CCc1ccccc1,> 46.3 µg/mL
2,COc1ccc(CCNC(=O)CSc2ccccn2)cc1OC,> 49.9 µg/mL
3,COc1ccccc1NC(=O)COc1ccc(C(=O)NCC2CCCO2)cc1OC (stereo not given),51.5 µg/mL
4,CC(C)c1ccc(NC2CCCN(C(=O)c3ccoc3)C2)cc1 (stereo not given),> 46.9 µg/mL
5,CCCCS(=O)(=O)N1CCC(C(=O)Oc2ccc(Cl)cc2)CC1,1.7 µg/mL
6,COc1ccc(-c2cc3nc4n(c(=O)c3s2)CCCCC4)cc1,< 0.3 µg/mL
7,CN(C)S(=O)(=O)c1ccc(NC=O)cc1,> 34.2 µg/mL
8,NC12NC(=O)C3(O)C4C5CC(C6C5C3C61)C42 (stereo not given),> 32.7 µg/mL
9,CN(C)C(=O)COc1ccc(Oc2ccccc2)cc1,25.7 µg/mL
10,O=C(NCc1ncc(C(F)(F)F)cc1Cl)Nc1ccccc1,3.1 µg/mL
11,COc1ccc(C(=O)Nc2ccc(N3CCN(C)CC3)cc2)cc1,42.7 µg/mL
12,O=S(=O)(NCCc1ccccc1)c1cccs1,34 µg/mL
13,CCc1cc(=O)oc2cc(OCC(=O)N3CCC[C@H]3C(=O)O)ccc12,> 51.8 µg/mL
14,CCc1ccccc1NC(=S)N(CCc1ccncc1)C(C)C,44 µg/mL
15,COc1cc(CN=C(C)c2c(O)n(C3CCCCC3)c(=O)[nH]c2=O)cc(OC)c1,< 0.3 µg/mL
16,CN(C)Cc1ccc(CNC(=O)COc2ccc3ccccc3c2)cc1,44.7 µg/mL
17,COc1cccc(N2C(=O)/C(=C\c3cccs3)NC2=S)c1,4.1 µg/mL
18,OCc1cccc[n+]1CCc1ccccc1.[Br-],> 44.1 µg/mL
19,O=C(COc1cccnc1[N+](=O)[O-])c1ccc(Cl)s1,37.2 µg/mL
20,CC(OC(=O)c1ccc(Cl)nc1)C(=O)NC(C)(C)C (stereo not given),> 42.7 µg/mL
